Test results: article PMC7986605 (Journal of Neuroscience Research, 2021)

These compounds were tested on primary hippocampal/cortical neuronal and glial cultures. Conditions: Sprague-Dawley, rat.

| Structure (SMILES) | concentrations at which the compound was toxic/cytotoxic |
| --- | --- |
| CSc1ccc2c(c1)N(CCC1CCCCN1C)c1ccccc1S2 (stereo not drawn) [thioridazine] | above 1 µM |

Same assay, conditions: α-synuclein oligomer 1.0 μM; 0.5–20 µM

| Structure (SMILES) | inhibition of α-synuclein oligomer-induced trafficking deficits (in words) |
| --- | --- |
| CC(NC(C)(C)C)C(=O)c1cccc(Cl)c1 (stereo not drawn) [bupropion] | weakly inhibited |
| NC(=O)N1c2ccccc2C=Cc2ccccc21 [carbamazepine] | inhibited deficits at low concentrations |
| CCCCCCNC(=O)n1cc(F)c(=O)[nH]c1=O [carmofur] | weakly inhibited |
| CCCCC1=NC2(CCCC2)C(=O)N1Cc1ccc(-c2ccccc2-c2nnn[nH]2)cc1 [irbesartan] | weakly inhibited |
| CC[C@H](C)C(=O)O[C@H]1C[C@@H](C)C=C2C=C[C@H](C)[C@H](CC[C@@H]3C[C@@H](O)CC(=O)O3)[C@H]21 [lovastatin] | inhibited deficits at low concentrations |
